Data reported in ChEMBL document CHEMBL4739718, “Substituted 5-cyclopropyl-1h-pyrazol-3-yl-amine derivatives as selective cdk12/13 inhibitors” (2020).

How the values were obtained:
[1] = target: Cyclin-dependent kinase 12 (Homo sapiens) (UniProt Q9NYV4); assay: Binding affinity to CDK12 in human Jurkat cells assessed as target occupancy level incubated for 2 hrs by measuring Bio-THZ531 bound protein level by spectrophotometry based plate based target engagement assay; format: cell-based
[2] = target: T1, Cyclin-dependent kinase 7 (Homo sapiens, UniProt P50613); assay: Binding affinity to CDK7 in human Jurkat cells assessed as target occupancy level incubated for 2 hrs by measuring Bio-THZ531 bound protein level by spectrophotometry based plate based target engagement assay; format: cell-based
[3] = target: T1, Cyclin-dependent kinase 7; assay: Inhibition of CDK7 (unknown origin) assessed as reduction in ATP-dependent phosphorylation of ULight-myelin basic protein substrate peptide incubated for 60 mins by LANCE TR-FRET assay

T1 sequence (P50613 whole entry): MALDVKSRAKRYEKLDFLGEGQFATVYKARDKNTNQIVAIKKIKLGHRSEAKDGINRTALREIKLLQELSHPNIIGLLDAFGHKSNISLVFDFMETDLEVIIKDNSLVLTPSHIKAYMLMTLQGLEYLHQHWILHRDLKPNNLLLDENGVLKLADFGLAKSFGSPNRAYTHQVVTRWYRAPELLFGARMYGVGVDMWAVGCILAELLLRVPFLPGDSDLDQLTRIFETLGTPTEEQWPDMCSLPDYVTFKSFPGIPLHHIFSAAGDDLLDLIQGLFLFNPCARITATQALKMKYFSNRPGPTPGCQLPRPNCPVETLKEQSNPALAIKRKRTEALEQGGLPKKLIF
Cyclin-dependent kinase 12 (Homo sapiens), sequence (Q9NYV4 whole entry, looked up): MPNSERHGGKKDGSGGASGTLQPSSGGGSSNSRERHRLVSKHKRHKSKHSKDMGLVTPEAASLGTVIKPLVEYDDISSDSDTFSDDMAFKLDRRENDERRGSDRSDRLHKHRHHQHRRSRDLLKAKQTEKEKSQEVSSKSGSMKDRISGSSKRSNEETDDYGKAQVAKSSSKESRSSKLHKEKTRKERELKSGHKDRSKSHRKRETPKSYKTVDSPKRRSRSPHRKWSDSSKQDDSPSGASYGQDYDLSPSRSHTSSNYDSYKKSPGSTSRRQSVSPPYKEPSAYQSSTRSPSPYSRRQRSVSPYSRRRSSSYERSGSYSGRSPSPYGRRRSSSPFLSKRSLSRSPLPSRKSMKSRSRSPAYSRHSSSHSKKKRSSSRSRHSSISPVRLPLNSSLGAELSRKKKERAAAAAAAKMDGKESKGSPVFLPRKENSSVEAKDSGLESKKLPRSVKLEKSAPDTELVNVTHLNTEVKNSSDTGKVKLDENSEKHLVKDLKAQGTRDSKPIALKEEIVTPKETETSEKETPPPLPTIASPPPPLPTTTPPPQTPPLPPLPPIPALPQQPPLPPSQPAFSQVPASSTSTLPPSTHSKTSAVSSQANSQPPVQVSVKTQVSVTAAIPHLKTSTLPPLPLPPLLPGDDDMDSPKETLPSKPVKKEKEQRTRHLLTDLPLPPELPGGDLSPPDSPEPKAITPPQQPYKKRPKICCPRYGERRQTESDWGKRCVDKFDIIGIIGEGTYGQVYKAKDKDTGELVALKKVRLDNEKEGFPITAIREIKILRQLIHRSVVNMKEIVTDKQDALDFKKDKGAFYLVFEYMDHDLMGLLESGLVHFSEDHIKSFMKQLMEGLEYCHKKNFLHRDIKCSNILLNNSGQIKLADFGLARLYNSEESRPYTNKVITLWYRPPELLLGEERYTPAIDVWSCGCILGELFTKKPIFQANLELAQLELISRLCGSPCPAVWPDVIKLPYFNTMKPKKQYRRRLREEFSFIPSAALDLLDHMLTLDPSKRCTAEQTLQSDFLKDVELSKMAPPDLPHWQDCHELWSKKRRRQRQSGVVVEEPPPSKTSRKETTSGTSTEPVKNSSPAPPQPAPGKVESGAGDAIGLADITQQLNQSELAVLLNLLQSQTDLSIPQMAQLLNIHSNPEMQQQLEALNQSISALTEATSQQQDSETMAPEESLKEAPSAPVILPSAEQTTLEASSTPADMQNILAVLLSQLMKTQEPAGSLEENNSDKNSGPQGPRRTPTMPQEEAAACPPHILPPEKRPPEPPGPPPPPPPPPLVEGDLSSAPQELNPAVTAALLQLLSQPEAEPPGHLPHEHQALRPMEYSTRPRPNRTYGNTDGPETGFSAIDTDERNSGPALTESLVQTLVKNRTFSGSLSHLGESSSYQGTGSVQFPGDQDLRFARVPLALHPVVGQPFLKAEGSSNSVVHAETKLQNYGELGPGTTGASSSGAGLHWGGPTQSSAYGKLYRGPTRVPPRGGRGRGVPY

Row | Occ50 [1] | Occ50 [2] | IC50 [3] | Compound
1 | 0.022 µM | > 2 µM |  | C=CC(=O)NCc1ccc(-c2ccc([C@H](C)C(=O)Nc3cc(C4CC4)[nH]n3)cc2)cn1
2 | 0.23 µM | 0.61 µM |  | C=CC(=O)NCc1ccc(-c2ccc(C(C)C(=O)Nc3cc(C4CC4)[nH]n3)cc2)cn1 (stereo unspecified)
3 |  |  | > 10 µM | C=CC(=O)NCc1ccc(-c2ccc(C(C)C(=O)Nc3cc(C4CC4)[nH]n3)cn2)cn1 (stereo unspecified)
4 |  |  | > 10 µM | CC(C(=O)Nc1cc(C2CC2)[nH]n1)c1ccc(-c2ccc(NC(=O)/C=C/CN3CCOCC3)cc2)cc1 (stereo in doubt; 12)
